Results: patent publication US20230293573A1 (priority 2020, published 2023)
pIC50: −log10 of the molar value. Values after ≈ are worked out from the molar mass of the structure shown. Where two headings read alike, the source gives them in different places.

What was measured:
TMEM16F/Anoctamin6 = target: T1, TMEM16F/Anoctamin6 (Homo sapiens, UniProt Q4KMQ2); details: Spike-expressing cells; cited from earlier work
T1 sequence (Q4KMQ2 1-910): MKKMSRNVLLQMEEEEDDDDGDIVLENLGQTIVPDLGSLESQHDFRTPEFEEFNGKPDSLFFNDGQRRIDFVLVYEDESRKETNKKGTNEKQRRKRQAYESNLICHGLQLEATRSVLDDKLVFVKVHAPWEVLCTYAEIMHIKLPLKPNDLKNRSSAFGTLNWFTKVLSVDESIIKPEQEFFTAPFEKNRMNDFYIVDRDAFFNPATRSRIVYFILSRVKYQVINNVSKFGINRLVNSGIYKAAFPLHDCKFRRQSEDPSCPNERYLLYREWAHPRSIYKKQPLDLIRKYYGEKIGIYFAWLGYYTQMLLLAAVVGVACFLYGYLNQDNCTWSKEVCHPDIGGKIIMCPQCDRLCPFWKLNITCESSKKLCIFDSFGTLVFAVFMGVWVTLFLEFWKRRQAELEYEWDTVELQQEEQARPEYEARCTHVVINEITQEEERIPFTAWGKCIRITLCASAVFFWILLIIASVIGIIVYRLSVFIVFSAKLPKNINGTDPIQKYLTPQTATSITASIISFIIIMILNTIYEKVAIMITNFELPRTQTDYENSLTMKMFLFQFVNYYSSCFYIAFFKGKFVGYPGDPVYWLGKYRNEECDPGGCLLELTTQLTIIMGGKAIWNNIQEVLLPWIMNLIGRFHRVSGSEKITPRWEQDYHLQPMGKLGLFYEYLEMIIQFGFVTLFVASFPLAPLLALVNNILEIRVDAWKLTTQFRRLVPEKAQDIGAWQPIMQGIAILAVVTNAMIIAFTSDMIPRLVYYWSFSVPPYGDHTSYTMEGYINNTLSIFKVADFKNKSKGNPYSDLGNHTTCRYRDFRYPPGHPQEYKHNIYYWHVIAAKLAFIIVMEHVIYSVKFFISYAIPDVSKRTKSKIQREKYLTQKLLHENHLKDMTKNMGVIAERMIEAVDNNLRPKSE

[1] = tested on: prostate cancer cell (PC-3); experiment: Inhibitory efficacy against prostate cancer cell PC-3; assay type: cell-based; details: estimated from dose-efficacy curve, FIG. 7
[2] = rats, single oral dose 5 mg/kg, dissolved in DMSO/cremophor EL/water 3/15/82; cited from earlier work
[3] = Solubilization and dispersion of niclosamide by OHPP; details: 2.5 mg/mL niclosamide in phosphate buffer
[4] = phosphate buffer, depending on temperature of measurement; cited from earlier work
[5] = cited from earlier work
[6] = cited from earlier work; remark: listed apart in the source
SARS-CoV-2 [7] = experiment: microbe, parasite or virus in culture; assay type: cell-based; details: Severe acute respiratory syndrome coronavirus 2; Gassen et al. (2020); read-out: IC50 against SARS-CoV-2
SARS-CoV-2 [8] = experiment: Anti-SARS-CoV-2 efficacy in Vero cells (Jeon et al. 2020); assay type: cell-based; details: Severe acute respiratory syndrome coronavirus 2, Vero; for IC90: read-out: IC90 against SARS-CoV-2
SARS-CoV-2 [9] = details: Gassen et al. (2020); read-out: IC50 against SARS-CoV-2; cited from earlier work

SMILES: O=C(Nc1ccc([N+](=O)[O-])cc1Cl)c1cc(Cl)ccc1O [niclosamide, 2′,5-Dichloro-4′-nitrosalicylanilide]
- effect on calcium oscillations and membrane conductances through TMEM16F (TMEM16F/Anoctamin6): markedly blunted calcium oscillations and membrane conductances
- IC50 [1]: 5.93 µg/mL (≈ 18.1 µM)
- highest plasma concentration (Cmax) [2]: 354 ± 152 ng/mL
- appearance of dispersion [3]: did not dissolve and showed heavy clouds and precipitates
- solubility [4]: 0.3 to 1.14 µg/mL
- BCS solubility [5]: low solubility
- solubility definition ([5]; delMoral-Sanchez et al., 2019): practically insoluble
- maximal plasma concentration ([6]; 500 mg TID): 35.7 to 182 ng/mL
- side effects ([6]; 500 or 1000 mg TID oral, 4 weeks): mostly associated with the GI tract
- maximal plasma concentration, highest level reached ([6]; 500 or 1000 mg TID, 4 weeks): 182 ng/mL
- IC50 (SARS-CoV-2 [7]): 0.056 µg/mL (≈ 0.171 µM)
- IC90 (SARS-CoV-2 [8]; read from FIG. 2 (Jeon et al. 2020)): ~700 nM
- IC50 (SARS-CoV-2 [8]; read-out: IC50 against SARS-CoV-2): 0.092 µg/mL (≈ 0.281 µM)
- IC90 (SARS-CoV-2 [8]): ~0.229 µg/mL
- pIC50 (SARS-CoV-2 [9]): 6.77
